# According to patent publication US20220411471A1, “CELL-PERMEABLE CYCLIC PEPTIDES AND USES THEREOF” (Unnatural Products Inc., priority 2019, published 2022):
# Starred links: 1 amine or outer side, 2 acyl side, 3 side chain; linkers in the order of their positions; H or OH if unused. Non-standard residues stand in square brackets, D forms with d. Residues, ends and D or L forms follow the SMILES beside them. Azetidine3carboxylic = O=C(C1CN([*:1])C1)[*:2]; Phe(4-Cl) = N[C@@H](Cc1ccc(Cl)cc1)C(=O)O; Phe(3-F) = N[C@@H](Cc1cccc(F)c1)C(=O)O; Phe(4-F) = N[C@@H](Cc1ccc(F)cc1)C(=O)O; 3Pal = N[C@@H](Cc1cccnc1)C(=O)O; 2Thi = N[C@@H](Cc1cccs1)C(=O)O; dNMeV = CN[C@@H](C(=O)O)C(C)C; Tle = CC(C)(C)[C@H](N)C(=O)O; dPip = O=C(O)[C@H]1CCCCN1; NMeA = CN[C@@H](C)C(=O)O; Nme = COCCNCC(=O)O
# Target: T1, Human MDM2 (HDM2) 1-116 (Homo sapiens, UniProt Q00987)
# T1 construct: Human MDM2 (HDM2) 1-116
# Assay: Fluorescence polarization assay, MDM2/p53 (Table 3)
# Type: binding
# Protocol: (§1) Human MDM2 (HDM2) 1-116 (20 μL) and FITC-labeled p53 (18-26), 50 nM and 10 nM respectively in 10 mM Tris, 50 mM NaCl, 0.01% Tween20, and 1 mM DTT at pH 7.4 were dispensed into an opaque, black, 384 well plate. Compounds dissolved in DMSO were pin transferred (˜200 nL) to the 384 well plate containing the MDM2/p53 solution. After incubation for 10 minutes, the fluorescence polarization was read on a Molecular Devices SpectraMax plate reader equipped with a Fluorescein FP cartridge. In addition to probe alone (positive control) and probe/MDM2 (negative control), a titration of linear p53(18-26) was included on every plate as an additional control. IC50 values were fit using either Prism or Collaborative Drug Discovery.
# as §1, with “and FAM-labeled RFMDYWEGL-NH2,” for “and FITC-labeled p53 (18-26),”, “NaCl, 0.010%” for “NaCl, 0.01%”, “transferred (˜100-200” for “transferred (˜200”, “for 60” for “for 10”
# T1 sequence (Q00987 1-116): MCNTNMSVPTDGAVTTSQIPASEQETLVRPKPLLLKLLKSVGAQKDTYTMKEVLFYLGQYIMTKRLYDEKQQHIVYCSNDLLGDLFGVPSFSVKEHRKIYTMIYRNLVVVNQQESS
row,SMILES,IC50
1,"COCCN1CC(=O)N(C)[C@@H](C)C(=O)N[C@@H](Cc2ccc(F)cc2)C(=O)N(C)[C@@H](C)C(=O)N[C@@H](Cc2ccc(Cl)cc2)C(=O)N(C)[C@H](C(C)C)C(=O)N2CCC[C@H]2C(=O)N[C@@H](Cc2ccccc2)C(=O)N[C@@H](C(C)(C)C)C(=O)N[C@@H](Cc2ccc(O)cc2)C1=O [Compound 14, [H]Oc1ccc(C[C@@H]2NC(=O)[C@@H](NC(=O)[C@H](Cc3ccccc3)NC(=O)[C@@H]3CCCN3C(=O)[C@@H](C(C)C)N(C)C(=O)[C@H](Cc3ccc(Cl)cc3)NC(=O)[C@H](C)N(C)C(=O)[C@H](Cc3ccc(F)cc3)NC(=O)[C@H](C)N(C)C(=O)CN(CCOC)C2=O)C(C)(C)C)cc1] (cyclo(F[Tle]Y[Nme][NMeA][Phe(4-F)][NMeA][Phe(4-Cl)][dNMeV]P))",1 to 2.5 µM
2,"C[C@H]1C(=O)N[C@@H](Cc2ccc(Cl)cc2)C(=O)N2CCCC[C@@H]2C(=O)N2CCC[C@H]2C(=O)N[C@@H](Cc2ccc(O)cc2)C(=O)N[C@@H](CCC(=O)O)C(=O)N[C@@H](Cc2cccnc2)C(=O)N2CCC[C@@H]2C(=O)N(C)[C@@H](C)C(=O)N[C@@H](Cc2ccc(F)cc2)C(=O)N1C [Compound 15, [H]OC(=O)CC[C@@H]1NC(=O)[C@H](Cc2ccc(O[H])cc2)NC(=O)[C@@H]2CCCN2C(=O)[C@H]2CCCCN2C(=O)[C@H](Cc2ccc(Cl)cc2)NC(=O)[C@H](C)N(C)C(=O)[C@H](Cc2ccc(F)cc2)NC(=O)[C@H](C)N(C)C(=O)[C@H]2CCCN2C(=O)[C@H](Cc2cccnc2)NC1=O] (cyclo([3Pal][dP][NMeA][Phe(4-F)][NMeA][Phe(4-Cl)][dPip]PYE))",1 to 2.5 µM
3,"C[C@H]1C(=O)N[C@@H](Cc2ccc(Cl)cc2)C(=O)N2CCCC[C@@H]2C(=O)N2CCC[C@H]2C(=O)N[C@@H](Cc2cccnc2)C(=O)N[C@@H](CCC(=O)O)C(=O)N[C@@H](Cc2ccc(O)cc2)C(=O)N2CCC[C@@H]2C(=O)N(C)[C@@H](C)C(=O)N[C@@H](Cc2ccc(F)cc2)C(=O)N1C [Compound 16, [H]OC(=O)CC[C@@H]1NC(=O)[C@H](Cc2cccnc2)NC(=O)[C@@H]2CCCN2C(=O)[C@H]2CCCCN2C(=O)[C@H](Cc2ccc(Cl)cc2)NC(=O)[C@H](C)N(C)C(=O)[C@H](Cc2ccc(F)cc2)NC(=O)[C@H](C)N(C)C(=O)[C@H]2CCCN2C(=O)[C@H](Cc2ccc(O[H])cc2)NC1=O] (cyclo([3Pal]EY[dP][NMeA][Phe(4-F)][NMeA][Phe(4-Cl)][dPip]P))",< 1 µM
4,"COCCN1CC(=O)N(C)[C@@H](C)C(=O)N[C@@H](Cc2ccc(F)cc2)C(=O)N(C)[C@@H](C)C(=O)N[C@@H](Cc2ccc(Cl)cc2)C(=O)N(C)[C@H](C(C)C)C(=O)N2CCC[C@H]2C(=O)N[C@@H](Cc2cccs2)C(=O)N[C@@H](C(C)(C)C)C(=O)N[C@@H](Cc2cccnc2)C1=O [Compound 17, COCCN1CC(=O)N(C)[C@@H](C)C(=O)N[C@@H](Cc2ccc(F)cc2)C(=O)N(C)[C@@H](C)C(=O)N[C@@H](Cc2ccc(Cl)cc2)C(=O)N(C)[C@H](C(C)C)C(=O)N2CCC[C@H]2C(=O)N[C@@H](Cc2cccs2)C(=O)N[C@H](C(=O)N[C@@H](Cc2cccnc2)C1=O)C(C)(C)C] (cyclo([2Thi][Tle][3Pal][Nme][NMeA][Phe(4-F)][NMeA][Phe(4-Cl)][dNMeV]P))",< 1 µM
5,"COCCN1CC(=O)N[C@@H](Cc2ccc(Cl)cc2)C(=O)N2CCCC[C@@H]2C(=O)N2CCC[C@H]2C(=O)N[C@@H](Cc2ccccc2)C(=O)N[C@@H](C(C)(C)C)C(=O)N[C@@H](Cc2cccnc2)C(=O)N2CCC[C@@H]2C(=O)N(C)[C@@H](C)C(=O)N[C@@H](Cc2ccc(F)cc2)C1=O [Compound 18, COCCN1CC(=O)N[C@@H](Cc2ccc(Cl)cc2)C(=O)N2CCCC[C@@H]2C(=O)N2CCC[C@H]2C(=O)N[C@@H](Cc2ccccc2)C(=O)N[C@H](C(=O)N[C@@H](Cc2cccnc2)C(=O)N2CCC[C@@H]2C(=O)N(C)[C@@H](C)C(=O)N[C@@H](Cc2ccc(F)cc2)C1=O)C(C)(C)C] (cyclo([3Pal][dP][NMeA][Phe(4-F)][Nme][Phe(4-Cl)][dPip]PF[Tle]))",< 1 µM
6,"C[C@H]1C(=O)N[C@@H](Cc2ccc(F)cc2)C(=O)N[C@@H](C(C)(C)C)C(=O)N[C@@H](Cc2ccc(Cl)cc2)C(=O)N2CCCC[C@@H]2C(=O)N2CCC[C@H]2C(=O)N[C@@H](Cc2ccccc2)C(=O)N2CC(C2)C(=O)N[C@@H](Cc2cccnc2)C(=O)N2CCC[C@@H]2C(=O)N1C [Compound 19, C[C@@H]1N(C)C(=O)[C@H]2CCCN2C(=O)[C@H](Cc2cccnc2)NC(=O)C2CN(C2)C(=O)[C@H](Cc2ccccc2)NC(=O)[C@@H]2CCCN2C(=O)[C@H]2CCCCN2C(=O)[C@H](Cc2ccc(Cl)cc2)NC(=O)[C@@H](NC(=O)[C@H](Cc2ccc(F)cc2)NC1=O)C(C)(C)C] (cyclo([3Pal][dP][NMeA][Phe(4-F)][Tle][Phe(4-Cl)][dPip]PF[Azetidine3carboxylic]))",< 1 µM
7,"COCCN1CC(=O)N(C)[C@@H](C)C(=O)N[C@@H](Cc2ccc(F)cc2)C(=O)N(C)[C@@H](C)C(=O)N[C@@H](Cc2ccc(Cl)cc2)C(=O)N2CCCC[C@@H]2C(=O)N2CCC[C@H]2C(=O)N[C@@H](Cc2cccs2)C(=O)N[C@@H](C(C)(C)C)C(=O)N[C@@H](Cc2cccnc2)C1=O [Compound 20, COCCN1CC(=O)N(C)[C@@H](C)C(=O)N[C@@H](Cc2ccc(F)cc2)C(=O)N(C)[C@@H](C)C(=O)N[C@@H](Cc2ccc(Cl)cc2)C(=O)N2CCCC[C@@H]2C(=O)N2CCC[C@H]2C(=O)N[C@@H](Cc2cccs2)C(=O)N[C@H](C(=O)N[C@@H](Cc2cccnc2)C1=O)C(C)(C)C] (cyclo([2Thi][Tle][3Pal][Nme][NMeA][Phe(4-F)][NMeA][Phe(4-Cl)][dPip]P))",< 1 µM
8,"COCCN1CC(=O)N(C)[C@@H](C)C(=O)N[C@@H](Cc2ccc(F)cc2)C(=O)N(C)[C@@H](C)C(=O)N[C@@H](Cc2ccc(Cl)cc2)C(=O)N2CCCC[C@@H]2C(=O)N2CCC[C@H]2C(=O)N[C@@H](Cc2ccccc2)C(=O)N[C@@H](C(C)(C)C)C(=O)N[C@@H](Cc2cccnc2)C1=O [Compound 21, COCCN1CC(=O)N(C)[C@@H](C)C(=O)N[C@@H](Cc2ccc(F)cc2)C(=O)N(C)[C@@H](C)C(=O)N[C@@H](Cc2ccc(Cl)cc2)C(=O)N2CCCC[C@@H]2C(=O)N2CCC[C@H]2C(=O)N[C@@H](Cc2ccccc2)C(=O)N[C@H](C(=O)N[C@@H](Cc2cccnc2)C1=O)C(C)(C)C] (cyclo([3Pal][Nme][NMeA][Phe(4-F)][NMeA][Phe(4-Cl)][dPip]PF[Tle]))",1 to 2.5 µM
9,"COCCN1CC(=O)N(C)[C@@H](C)C(=O)N[C@@H](Cc2ccc(F)cc2)C(=O)N(C)[C@@H](C)C(=O)N[C@@H](Cc2ccc(Cl)cc2)C(=O)N2CCCC[C@@H]2C(=O)N2CCC[C@H]2C(=O)N[C@@H](Cc2ccccc2)C(=O)N[C@@H](C(C)(C)C)C(=O)N[C@@H](Cc2cccc(F)c2)C1=O [Compound 22, COCCN1CC(=O)N(C)[C@@H](C)C(=O)N[C@@H](Cc2ccc(F)cc2)C(=O)N(C)[C@@H](C)C(=O)N[C@@H](Cc2ccc(Cl)cc2)C(=O)N2CCCC[C@@H]2C(=O)N2CCC[C@H]2C(=O)N[C@@H](Cc2ccccc2)C(=O)N[C@H](C(=O)N[C@@H](Cc2cccc(F)c2)C1=O)C(C)(C)C] (cyclo(F[Tle][Phe(3-F)][Nme][NMeA][Phe(4-F)][NMeA][Phe(4-Cl)][dPip]P))",1 to 2.5 µM
